Here are results for two molecules from patent publication US20140112992A1, “PROCESS FOR FEBUXOSTAT” (HETERO RESEARCH FOUNDATION, priority 2011, published 2014).

For one data set, the system named is levels of uric acid. To be noted: compared to allopurinol; cited from earlier work.
Data set [1] in a line: Particle size distribution (D50) by laser diffraction, Sympatec Helos. In kind it is physicochemical. From the text:
The term “Particle Size Distribution (P.S.D.)” means the cumulative volume size distribution of equivalent spherical diameters as determined by laser diffraction at 1 bar dispersive pressure in Sympatec Helos equipment. “Mean particle size distribution, i.e., D50” correspondingly, means the median of said particle size distribution.

`Cc1nc(-c2ccc(OCC(C)C)c(C#N)c2)sc1C(=O)O` [febuxostat, 2-[3-cyano-4-(2-methylpropoxy)phenyl]-4-methyl-5-thiazolecarboxylic acid]: in the data set on levels of uric acid, the “amount of initial gout flares or surface area of gout tophi” value is reported as “no difference” and the “individuals with decreased levels of uric acid” value is recorded as “more individuals treated with febuxostat had decreased levels of uric acid”.
Turning to `Cc1nc(-c2ccc(OCC(C)C)c(C#N)c2)sc1C(=O)O` [Febuxostat crystalline Form H1, 2-[3-cyano-4-(2-methylpropoxy)phenyl]-4-methyl-5-thiazolecarboxylic acid], the “D50 (mean particle size distribution)” value was 2.15 μm in data set [1] (after grinding for 5 to 10 minutes) and 322.46 in data set [1] (before grinding, in µm (unit assumed)).
